Experimental data published in patent US12043602B2, “Fendiline derivatives” (The Board of Regents of the University of Texas System, priority 2019, dated 2024).
Where two headings read alike, the source gives them in different places.

Experiments:
[1] = tested on: MPanc96 (Mut) pancreatic tumor cells; assay: CyQUANT proliferation assay; format: cell-based
Procedure: (§1) Madine Darby Canine Kidney epithelial cells (MDCK) stably co-expressing mGFP-tagged full length oncogenic mutant K-Ras (GFP—K-RASG12V) or mGFP-LactC2 (peptide probe for phosphatidylserine) and mCherry-tagged to the amino acids 179-189 of H-RasC181S, C184S (mCherry-CAAX, localizes primarily to endomembranes) were grown in DMEM-high glucose/sodium pyruvate/10% FBS. The medium was supplemented with 1× Penicillin/Streptomycin for fluorescence microscopy assays, to avoid any microbial contamination from the test compounds added. KLE and Hec50 cells were maintained in DMEM-F-12 medium supplemented with 10% FBS. Hec-1A and Hec-1B cells were grown in McCoy's 5a medium supplemented with 10% FBS. ESS-1 cells were grown in RPMI 1640 medium supplemented with 20% FBS. MPanc96 cells were grown in DMEM supplemented with 10% FBS, MiaPaCa-2 cells in DMEM supplemented with 10% FBS and 2.5% horse serum and all other cell lines were grown in RPMI 1640 supplemented with 10% FBS. All cancer cell media were supplemented with ×Penicillin/Streptomycin. All cell lines were grown at 37° C. with 5% CO2.
(§2) Cells were seeded in 96-well plates. After 24 h, fresh growth medium supplemented with 0.1% vehicle (DMSO), or various concentrations of drugs was added and cells were grown for 72 h. Cell numbers were quantified using the CyQUANT® Cell Proliferation Assay Kit (Molecular Probes, Life Technologies), according to the manufacturer's protocol. Fluorescence measurement was used as a measure of live cell number.

[2] = tested on: MOH (Mut) pancreatic tumor cells; assay: CyQUANT proliferation assay; format: cell-based
Procedure: as §1, §2

SMPD1-GFP (ASM) = SMPD1-GFP (ASM) (Homo sapiens (Human), UniProt P17405); assay: Western blot of SMPD1-GFP levels; format: cell-based; conditions: 5 μM compounds for 48 h
Procedure: (§3) FIG. 6A-C. (A) Dose response curves quantifying the extent of KRASG12V and LactC2 mislocalization after 48 h treatment with compounds. Mislocalization was quantified using Manders coefficients as the fraction of mCherry-CAAX co-localizing with mGFP-KRASG12V or GFP-LactC2. (B) ASM activity in cell stably expressing GFP-tagged SMPD1 treated with DMSO or 5 μM compound for 48 h. (C) Representative western blots and quantitation of SMPD1-GFP levels in cells treated with 5 μM compounds for 48 h. (D) Representative confocal images of MDCK cells stably co-expressing mGFP-KRASG12V and mCherry-CAAX treated with 10 μM compound 6 or 1 μM of compounds 12f (NY0244), 12h (NY0331) or 22 (NY0335) for 48 h (-ASM), then incubated with recombinant ASM in the continued presence of drugs for a further 60 min (+ASM). Mislocalization was quantified using Manders coefficients as the fraction of mCherry-CAAX co-localizing with mGFP-KRASG12V.
Western Blotting. […] Signals were detected by enhanced chemiluminescence (Thermo Fisher Scientific) and imaged using a FluorChemQ imager (Alpha Inotech). Quantification of intensities was performed using FluorChemQ software.

cleaved caspase 3 (CC3) = assay: Immunohistochemistry of tumor sections, cleaved caspase 3; design: species or system nu/nu mice; conditions: mouse, in vivo
Procedure: Immunohistochemistry. 4-5 μm sections were deparaffinized, rehydrated, and treated with 10 mM sodium citrate for heat induced antigen retrieval. After quenching endogenous peroxidase, and blocking with 2.5% normal goat serum (Vector Laboratories S-1012), sections were incubated overnight at 4° C. with primary antibody diluted in blocking solution as recommended by manufacturer (Cell Signaling). Controls were incubated with diluted normal rabbit IgG. After incubation with biotinylated secondary antibody diluted 1:250 in blocking serum for 45 min at rt, sections were incubated with VECTASTAIN ABC reagent for 30 min, and for development of the DAB chromogen the Quanto substrate was used. Slides were counter stained with Hematoxylin. Five fields per stained section per xenograft were photographed at 10X. CC3+ and pERK+ area and number of events per field were quantitated via automated image analysis (NIS Elements BR analysis ver. 4.13.04). Vessel number and lumen area per field used the same software with manual settings to trace vessel wall contours. Antibodies used are as follows: CC3: Cell Signaling #9661, use at 1:300. […]

human ASM (SMPD1)-GFP = human ASM (SMPD1)-GFP (Homo sapiens (Human), UniProt P17405); assay: ASM activity assay (Amplex Red SMase kit, lysates of treated cells); format: cell-based; conditions: 5 μM compound for 48 h
Chain of human ASM (SMPD1)-GFP (P17405 47-631): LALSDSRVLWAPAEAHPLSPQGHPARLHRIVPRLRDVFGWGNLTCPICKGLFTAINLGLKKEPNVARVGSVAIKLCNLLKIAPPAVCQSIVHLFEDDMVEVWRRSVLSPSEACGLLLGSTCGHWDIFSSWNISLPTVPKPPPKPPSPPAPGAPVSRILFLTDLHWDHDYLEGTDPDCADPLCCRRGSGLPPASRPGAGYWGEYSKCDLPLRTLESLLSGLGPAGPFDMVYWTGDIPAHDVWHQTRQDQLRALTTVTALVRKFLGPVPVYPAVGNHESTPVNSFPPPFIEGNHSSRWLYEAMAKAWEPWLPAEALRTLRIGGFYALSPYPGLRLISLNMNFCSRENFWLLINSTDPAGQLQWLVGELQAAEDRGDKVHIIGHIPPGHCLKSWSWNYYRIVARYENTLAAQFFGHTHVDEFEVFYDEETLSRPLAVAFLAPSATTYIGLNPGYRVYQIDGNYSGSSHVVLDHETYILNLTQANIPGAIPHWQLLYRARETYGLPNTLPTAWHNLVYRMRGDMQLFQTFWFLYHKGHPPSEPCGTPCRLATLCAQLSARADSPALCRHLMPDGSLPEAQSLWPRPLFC
Procedure: as §3
ASM Activity Assay. The ASM activity assay was performed with Amplex Red SMase Assay Kit (A12220; Invitrogen; Carlsbad, CA) according to the manufacturer's instructions. […] The plate was further incubated in the dark in 37° C. for 60 min, and the fluorescence was measured using BioTek Synergy H1 microplate reader (excitation λ=540 nm, emission λ=590 nm). […]

[3] = MPANC96, 72 h, read-out: IC50 proliferation MPanc96 (Mut)
[4] = MPANC96, Table 11, pancreatic, read-out: IC50 (μM) MPanc96 (Mut)
[5] = 72 h, read-out: IC50 proliferation MOH (Mut)
[6] = Table 11, pancreatic, read-out: IC50 (μM) MOH (Mut)

SMILES | IC50 [1, 3] [µM] | IC50 [1, 4] [µM] | IC50 [2, 5] [µM] | IC50 [2, 6] [µM] | cellular levels of ASM (SMPD1-GFP) (SMPD1-GFP (ASM)) | cleaved caspase 3 (CC3) in tumors (cleaved caspase 3 (CC3)) | inhibition of ASM (human ASM (SMPD1)-GFP)
CC(NCCC(c1ccccc1)c1ccccc1)c1ccccc1 (stereo not drawn) [Fendiline] | 10.8 | 10.8 | 11.1 | 11.1 | – | – | –
COc1ccc([C@@H](C)N(CC=C(c2ccccc2)c2ccccc2)CCN2CCN(C)CC2)cc1 [NY0244, (R)-N-(1-(4-methoxyphenyl)ethyl)-N-(2-(4-methylpiperazin-1-yl)ethyl)-3,3-diphenylprop-2-en-1-amine] | 4.22 | 4.2 | 3.67 | 3.7 | reduced the levels of ASM | – | –
COc1ccc([C@@H](C)N(CC=C(c2ccccc2)c2ccccc2)CCN2CCCC2)cc1 [NY0331, (R)-N-(1-(4-methoxyphenyl)ethyl)-3,3-diphenyl-N-(2-(pyrrolidin-1-yl)ethyl)prop-2-en-1-amine] | 3.81 | 3.8 | 3.55 | 4 | reduced the levels of ASM | increased | most potent
COc1ccc([C@@H](C)N(CC=C(c2ccccc2)c2ccccc2)CCCN2CCN(C)CC2)cc1 [NY0335, (R)-N-(1-(4-methoxyphenyl)ethyl)-N-(3-(4-methylpiperazin-1-yl)propyl)-3,3-diphenylprop-2-en-1-amine] | 4.18 | 4.2 | 3.77 | 3.8 | – | increased | –
